Results reported in PubChem BioAssay (NCI).
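Following 48 hours of exposure in 96-well plates, responses at five concentrations were used to interpolate endpoints linearly. Definition used: TGI = concentration required for complete inhibition of growth.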

Assays:
Test in all cases: growth of human tumour cells (NCI), 48 h
[1] = test system: 786-0 renal
[2] = test system: A498 renal
[3] = test system: A549 NSCLC
[4] = test system: ACHN renal
[5] = test system: BT-549 breast
[6] = test system: CAKI-1 renal
[7] = test system: CCRF-CEM leukemia
[8] = test system: COLO 205 colon
[9] = test system: DU-145 prostate
[10] = test system: EKVX NSCLC
[11] = test system: HCC-2998 colon
[12] = test system: HCT-116 colon
[13] = test system: HCT-15 colon
[14] = test system: HOP-62 NSCLC
[15] = test system: HOP-92 NSCLC
[16] = test system: HS 578T breast
[17] = test system: HT29 colon
[18] = test system: IGROV1 ovarian
[19] = test system: KM12 colon
[20] = test system: LOX IMVI melanoma
[21] = test system: M14 melanoma
[22] = test system: MDA-MB-231 breast
[23] = test system: MDA-MB-435
[24] = test system: MDA-N
[25] = test system: MOLT-4 leukemia
[26] = test system: NCI-H226 lung
[27] = test system: NCI-H23 lung
[28] = test system: NCI-H460 lung
[29] = test system: NCI-H522 lung
[30] = test system: NCI/ADR-RES ovarian
[31] = test system: OVCAR-4 ovarian
[32] = test system: OVCAR-5 ovarian
[33] = test system: OVCAR-8 ovarian
[34] = test system: PC-3 prostate
[35] = test system: RPMI-8226 leukemia
[36] = test system: RXF 393 renal
[37] = test system: SF-268 CNS
[38] = test system: SF-295 CNS
[39] = test system: SF-539 CNS
[40] = test system: SK-MEL-2 melanoma
[41] = test system: SK-MEL-28 melanoma
[42] = test system: SK-MEL-5 melanoma
[43] = test system: SK-OV-3 ovarian
[44] = test system: SN12C renal
[45] = test system: SNB-19 CNS
[46] = test system: SR leukemia
[47] = test system: SW-620 colon
[48] = test system: T-47D breast
[49] = test system: TK-10 renal
[50] = test system: U251 CNS
[51] = test system: UACC-257 melanoma
[52] = test system: UACC-62 melanoma
[53] = test system: UO-31 renal
[54] = test system: HL-60(TB) leukemia
[55] = test system: K-562 leukemia
[56] = test system: MALME-3M melanoma
[57] = test system: MCF7 breast
[58] = test system: OVCAR-3 ovarian
[59] = test system: SNB-75 CNS

SMILES: C/C(=N\Nc1nc2ccccc2o1)c1ncccn1
- TGI [1]: 12.1 µM
- TGI [2]: 15.8 µM
- TGI [3]: 12.1 µM
- TGI [4]: 11.3 µM
- TGI [5]: 34.8 µM
- TGI [6]: 1.57 µM
- TGI [7]: 0.0584 µM
- TGI [8]: 15.8 µM
- TGI [9]: > 50.8 µM
- TGI [10]: 14.1 µM
- TGI [11]: 20.7 µM
- TGI [12]: 17 µM
- TGI [13]: 20.3 µM
- TGI [14]: 2.91 µM
- TGI [15]: 16.6 µM
- TGI [16]: > 61 µM
- TGI [17]: 45.4 µM
- TGI [18]: 1.16 µM
- TGI [19]: 30.2 µM
- TGI [20]: 0.199 µM
- TGI [21]: 0.295 µM
- TGI [22]: 21.5 µM
- TGI [23]: 23.4 µM
- TGI [24]: > 54.5 µM
- TGI [25]: 0.0282 µM
- TGI [26]: 0.64 µM
- TGI [27]: 5.87 µM
- TGI [28]: 14 µM
- TGI [29]: 22.3 µM
- TGI [30]: < 0.0335 µM
- TGI [31]: 10.2 µM
- TGI [32]: 19.6 µM
- TGI [33]: 0.404 µM
- TGI [34]: 19.9 µM
- TGI [35]: 0.0363 µM
- TGI [36]: 5.59 µM
- TGI [37]: > 72.2 µM
- TGI [38]: 6.06 µM
- TGI [39]: 1.03 µM
- TGI [40]: 13.6 µM
- TGI [41]: 28.6 µM
- TGI [42]: 13.9 µM
- TGI [43]: 10 µM
- TGI [44]: 15.2 µM
- TGI [45]: > 100 µM
- TGI [46]: 0.228 µM
- TGI [47]: 28.3 µM
- TGI [48]: 28.5 µM
- TGI [49]: 18.2 µM
- TGI [50]: 14.8 µM
- TGI [51]: 15.6 µM
- TGI [52]: 0.449 µM
- TGI [53]: 0.609 µM

SMILES: COc1ccc(N=C(CS(=O)c2ccc(C)cc2)C(F)(F)F)cc1 (stereo not drawn)
- TGI [1]: > 100 µM
- TGI [3]: > 100 µM
- TGI [4]: > 100 µM
- TGI [5]: > 100 µM
- TGI [6]: > 100 µM
- TGI [7]: > 100 µM
- TGI [8]: > 100 µM
- TGI [9]: > 100 µM
- TGI [10]: > 100 µM
- TGI [11]: > 100 µM
- TGI [12]: > 100 µM
- TGI [13]: > 100 µM
- TGI [54]: 50.9 µM
- TGI [15]: > 100 µM
- TGI [17]: > 100 µM
- TGI [18]: > 100 µM
- TGI [55]: > 100 µM
- TGI [19]: > 100 µM
- TGI [20]: > 100 µM
- TGI [21]: > 100 µM
- TGI [56]: > 100 µM
- TGI [57]: > 100 µM
- TGI [22]: > 100 µM
- TGI [23]: > 100 µM
- TGI [24]: > 100 µM
- TGI [25]: > 100 µM
- TGI [26]: > 100 µM
- TGI [27]: > 100 µM
- TGI [28]: > 100 µM
- TGI [29]: > 100 µM
- TGI [30]: > 100 µM
- TGI [58]: > 100 µM
- TGI [31]: > 100 µM
- TGI [32]: > 100 µM
- TGI [33]: > 100 µM
- TGI [34]: > 100 µM
- TGI [36]: > 100 µM
- TGI [38]: > 100 µM
- TGI [39]: > 100 µM
- TGI [40]: > 100 µM
- TGI [41]: > 100 µM
- TGI [42]: > 100 µM
- TGI [43]: > 100 µM
- TGI [44]: > 100 µM
- TGI [45]: > 100 µM
- TGI [59]: > 100 µM
- TGI [46]: > 100 µM
- TGI [47]: > 100 µM
- TGI [48]: > 100 µM
- TGI [49]: > 100 µM
- TGI [50]: > 100 µM
- TGI [51]: > 100 µM
- TGI [52]: > 100 µM
- TGI [53]: > 100 µM

SMILES: OCC1C2CCC3(OCCO3)C12 (stereo not drawn)
- TGI [1]: > 100 µM
- TGI [3]: > 100 µM
- TGI [4]: > 100 µM
- TGI [5]: 35.6 µM
- TGI [6]: > 100 µM
- TGI [7]: > 100 µM
- TGI [8]: > 100 µM
- TGI [9]: > 100 µM
- TGI [10]: > 100 µM
- TGI [11]: > 100 µM
- TGI [12]: > 100 µM
- TGI [13]: > 100 µM
- TGI [14]: > 100 µM
- TGI [15]: > 100 µM
- TGI [17]: > 100 µM
- TGI [18]: > 100 µM
- TGI [55]: > 100 µM
- TGI [19]: > 100 µM
- TGI [20]: > 100 µM
- TGI [21]: > 100 µM
- TGI [56]: > 100 µM
- TGI [57]: > 100 µM
- TGI [22]: > 100 µM
- TGI [23]: > 100 µM
- TGI [24]: > 100 µM
- TGI [25]: > 100 µM
- TGI [26]: > 100 µM
- TGI [27]: 33.7 µM
- TGI [28]: > 100 µM
- TGI [29]: > 100 µM
- TGI [30]: > 100 µM
- TGI [58]: > 100 µM
- TGI [31]: > 100 µM
- TGI [32]: > 100 µM
- TGI [33]: > 100 µM
- TGI [34]: > 100 µM
- TGI [35]: > 100 µM
- TGI [36]: > 100 µM
- TGI [37]: > 100 µM
- TGI [38]: > 100 µM
- TGI [39]: > 100 µM
- TGI [40]: > 100 µM
- TGI [41]: > 100 µM
- TGI [42]: > 100 µM
- TGI [43]: > 100 µM
- TGI [44]: > 100 µM
- TGI [45]: > 100 µM
- TGI [59]: > 100 µM
- TGI [46]: > 100 µM
- TGI [47]: > 100 µM
- TGI [49]: > 100 µM
- TGI [50]: > 100 µM
- TGI [51]: > 100 µM
- TGI [52]: 33 µM
- TGI [53]: 29.6 µM

SMILES: NC1=NCC(CN2CCCCC2)O1 (stereo not drawn)
- TGI [1]: > 100 µM
- TGI [3]: > 100 µM
- TGI [4]: > 100 µM
- TGI [5]: > 100 µM
- TGI [6]: > 100 µM
- TGI [7]: > 100 µM
- TGI [8]: > 100 µM
- TGI [10]: > 100 µM
- TGI [12]: > 100 µM
- TGI [13]: > 100 µM
- TGI [54]: > 100 µM
- TGI [14]: > 100 µM
- TGI [16]: > 100 µM
- TGI [17]: > 100 µM
- TGI [18]: > 100 µM
- TGI [55]: > 100 µM
- TGI [19]: > 100 µM
- TGI [20]: > 100 µM
- TGI [21]: > 100 µM
- TGI [56]: > 100 µM
- TGI [57]: > 100 µM
- TGI [22]: > 100 µM
- TGI [23]: > 100 µM
- TGI [24]: > 100 µM
- TGI [25]: > 100 µM
- TGI [26]: > 100 µM
- TGI [28]: > 100 µM
- TGI [29]: > 100 µM
- TGI [30]: > 100 µM
- TGI [58]: > 100 µM
- TGI [33]: > 100 µM
- TGI [34]: > 100 µM
- TGI [35]: > 100 µM
- TGI [36]: > 100 µM
- TGI [37]: > 100 µM
- TGI [38]: > 100 µM
- TGI [39]: > 100 µM
- TGI [41]: > 100 µM
- TGI [42]: > 100 µM
- TGI [43]: > 100 µM
- TGI [44]: > 100 µM
- TGI [45]: > 100 µM
- TGI [59]: > 100 µM
- TGI [46]: > 100 µM
- TGI [47]: > 100 µM
- TGI [48]: > 100 µM
- TGI [49]: > 100 µM
- TGI [50]: > 100 µM
- TGI [51]: > 100 µM
- TGI [52]: > 100 µM
- TGI [53]: > 100 µM
